Molecular target: T1, sodium ion channel (Nav1.7) (Homo sapiens, UniProt Q15858)
T1 construct: host or cells: HEK293
Test: Blocking effect against sodium ion channel (Nav1.7), IonFlux16 auto patch clamp, hNav1.7 HEK293 cells
Assay type: cell-based
Details: peak current after 50 seconds treatment, eight concentrations
Description: In order to measure the activities of the inventive compounds as antagonists, an experiment on a blocking effect against the sodium ion channel (Nav1.7) was carried out as follows.
The hNav1.7 HEK293 cell line used was a cell line having a human sodium ion channel 1.7 gene (type IX voltage-gated sodium channel alpha subunit) in human embryonic kidney (HEK) 293 cells and was purchased from Millipore. The medium used was prepared by adding 1% 100×NEAA and 10% heat inactivated FBS to DMEM F-12 and adding 1% P/S as an antibiotic thereto. G-418 as a […] was added during subculture, and the hNav1.7 HEK293 cells were cultured to a confluence of about 80% in a T75 flask in a 5% CO2 incubator at 37° C. for 2 or 3 days and detached from the flask by treatment with 0.25% trypsin solution. Then, the cells were collected by centrifugation and used in the experiment.
The compounds prepared in the Examples of the present invention were dissolved in dimethyl sulfoxide (DMSO) and used in the experiment. 90 mM and 10 mM DMSO stock solutions were prepared from each of the compounds and diluted in an extracellular solution (4 mM KCl, 138 mM NaCl, 1 mM MgCl2, 1.8 mM CaCl2, 5.6 mM glucose, 10 mM HEPES, pH 7.45) at various concentrations so that the final concentration of each compound in DMSO was 0.3% or less.
To measure the sodium ion channel blocking effect, an IonFlux16 Auto patch clamp system (Fluxion, Inc.) and a plate for exclusive use were used. The cells were distributed in an extracellular solution (4 mM KCl, 138 mM NaCl, 1 mM MgCl2, 1.8 mM CaCl2, 5.6 mM glucose, 10 mM HEPES, pH 7.45), and then dispensed in the specified region of the plate, and each of the prepared compound samples was diluted at various concentrations, and then dispensed in the specified region of the plate.
Specifically, eight concentrations per compound were set, and percent inhibition was determined by calculating the percentage of inhibition of the peak current, generated after treating the cells with each concentration of the compound for 50 seconds, relative to the peak current generated before treatment with the compound, and the IC50 value was calculated using the Sigma plot program. In Table 2 below, the percent inhibition of Nav1.7 is rated as follows: […]

T1 sequence (Q15858 whole entry): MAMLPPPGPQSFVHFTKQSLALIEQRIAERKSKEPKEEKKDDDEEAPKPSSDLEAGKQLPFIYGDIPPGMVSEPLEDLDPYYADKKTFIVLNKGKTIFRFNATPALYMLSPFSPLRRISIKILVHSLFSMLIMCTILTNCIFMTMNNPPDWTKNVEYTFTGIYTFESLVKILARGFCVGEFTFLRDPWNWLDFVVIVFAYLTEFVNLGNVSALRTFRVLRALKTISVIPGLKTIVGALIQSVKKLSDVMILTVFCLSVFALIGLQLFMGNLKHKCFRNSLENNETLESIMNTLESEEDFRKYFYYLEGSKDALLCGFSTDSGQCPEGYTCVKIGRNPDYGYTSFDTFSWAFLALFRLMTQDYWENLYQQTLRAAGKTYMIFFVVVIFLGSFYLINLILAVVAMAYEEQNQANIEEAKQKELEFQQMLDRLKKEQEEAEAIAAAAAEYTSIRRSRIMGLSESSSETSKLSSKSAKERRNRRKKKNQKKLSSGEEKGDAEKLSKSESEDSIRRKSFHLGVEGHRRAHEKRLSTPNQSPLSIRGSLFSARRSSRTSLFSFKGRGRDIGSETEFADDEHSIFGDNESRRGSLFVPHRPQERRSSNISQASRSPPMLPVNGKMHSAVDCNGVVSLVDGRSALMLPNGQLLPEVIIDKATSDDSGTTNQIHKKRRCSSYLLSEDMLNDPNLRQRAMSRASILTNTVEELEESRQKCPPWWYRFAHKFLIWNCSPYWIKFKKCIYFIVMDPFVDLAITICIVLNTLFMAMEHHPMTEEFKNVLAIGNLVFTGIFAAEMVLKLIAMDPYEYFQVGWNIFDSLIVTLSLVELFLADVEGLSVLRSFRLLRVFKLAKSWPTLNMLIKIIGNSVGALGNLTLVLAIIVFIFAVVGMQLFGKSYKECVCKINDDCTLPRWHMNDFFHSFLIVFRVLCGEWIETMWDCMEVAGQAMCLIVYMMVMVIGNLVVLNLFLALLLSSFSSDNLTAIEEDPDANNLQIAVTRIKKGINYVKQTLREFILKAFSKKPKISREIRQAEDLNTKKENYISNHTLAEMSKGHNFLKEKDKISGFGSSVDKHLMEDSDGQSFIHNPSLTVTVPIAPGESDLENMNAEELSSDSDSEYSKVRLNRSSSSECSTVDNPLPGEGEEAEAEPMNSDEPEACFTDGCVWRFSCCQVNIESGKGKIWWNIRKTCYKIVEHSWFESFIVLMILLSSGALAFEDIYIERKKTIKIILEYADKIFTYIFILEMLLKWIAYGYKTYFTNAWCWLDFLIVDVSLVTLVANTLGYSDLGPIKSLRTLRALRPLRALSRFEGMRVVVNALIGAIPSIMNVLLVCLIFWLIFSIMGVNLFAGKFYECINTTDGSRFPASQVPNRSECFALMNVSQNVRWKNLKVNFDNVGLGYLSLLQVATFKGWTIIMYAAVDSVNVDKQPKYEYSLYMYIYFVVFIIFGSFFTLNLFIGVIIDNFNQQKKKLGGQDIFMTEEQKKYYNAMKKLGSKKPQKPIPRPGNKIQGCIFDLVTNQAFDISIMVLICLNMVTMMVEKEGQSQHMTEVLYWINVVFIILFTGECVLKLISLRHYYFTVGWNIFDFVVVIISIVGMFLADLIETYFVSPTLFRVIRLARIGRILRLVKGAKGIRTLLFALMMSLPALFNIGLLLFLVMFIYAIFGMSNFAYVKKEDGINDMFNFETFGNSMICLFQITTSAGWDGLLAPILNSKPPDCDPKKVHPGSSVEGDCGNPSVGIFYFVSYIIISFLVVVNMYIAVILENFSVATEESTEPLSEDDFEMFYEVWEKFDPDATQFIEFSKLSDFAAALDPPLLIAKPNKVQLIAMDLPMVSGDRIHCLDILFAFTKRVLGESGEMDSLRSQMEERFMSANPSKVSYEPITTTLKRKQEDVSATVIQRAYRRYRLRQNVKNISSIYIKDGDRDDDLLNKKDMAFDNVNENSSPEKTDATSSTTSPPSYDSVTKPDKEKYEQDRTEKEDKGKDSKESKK

Row | SMILES | IC50
1 | O=S(=O)(Nc1cscn1)c1cc(F)c(Oc2cnc(-c3ccc(F)c(F)c3)cc2-c2cccnc2)cc1F [Example 88, 4-((6′-(3,4-difluorophenyl)-[3,4′-bipyridin]-3′-yl)oxy)-2,5-difluoro-N-(thiazol-4-yl)benzenesulfonamide] | > 100 nM
2 | Cn1nccc1-c1cc(-c2cccnc2)ncc1Oc1ccc(S(=O)(=O)Nc2nccs2)cc1F [Example 21, 3-fluoro-4-((4-(1-methyl-1H-pyrazol-5-yl)-[2,3′-bipyridin]-5-yl)oxy)-N-(thiazol-2-yl)benzenesulfonamide] | > 100 nM
3 | N#Cc1cc(S(=O)(=O)Nc2nccs2)ccc1Oc1cnc(-c2ccccc2)cc1-c1cccnc1F [Example 29, 3-cyano-4-((2-fluoro-6′-phenyl-[3,4′-bipyridin]-3′-yl)oxy)-N-(thiazol-2-yl)benzenesulfonamide] | > 100 nM
4 | Cn1nccc1-c1cc(Cl)ccc1C(O)c1ccc(S(=O)(=O)Nc2nccs2)cc1F (centres unmarked) [Example 144, 4-((4-chloro-2-(1-methyl-1H-pyrazol-5-yl)phenyl)(hydroxy)methyl)-3-fluoro-N-(thiazol-2-yl)benzenesulfonamide] | > 100 nM
5 | Cc1ccc(-c2cc(-c3ccccc3)ncc2Oc2ccc(S(=O)(=O)Nc3nccs3)cc2C#N)s1 [Example 42, 3-cyano-4-((4-(5-methylthiophen-2-yl)-6-phenylpyridin-3-yl)oxy)-N-(thiazol-2-yl)benzenesulfonamide] | > 100 nM
6 | O=S(=O)(Nc1nccs1)c1ccc(C(O)c2ccc(-c3ccccc3F)cc2-c2ccoc2)cc1 (centres unmarked) [Example 152, 4-((2′-fluoro-3-(furan-3-yl)-[1,1′-biphenyl]-4-yl)(hydroxy)methyl)-N-(thiazol-2-yl)benzenesulfonamide] | > 100 nM
7 | O=S(=O)(Nc1nccs1)c1ccc(C(O)c2ccc(Cl)cc2-c2ccncc2)cc1 (centres unmarked) [Example 147, 4-((4-chloro-2-(pyridin-4-yl)phenyl)(hydroxy)methyl)-N-(thiazol-2-yl)benzenesulfonamide] | > 100 nM
8 | N#Cc1cc(S(=O)(=O)Nc2nccs2)ccc1Oc1cnc(-c2ccc(F)nc2)cc1-c1cccnc1 [Example 49, 3-cyano-4-((6-fluoro-[3,2′:4′,3″-terpyridin]-5′-yl)oxy)-N-(thiazol-2-yl)benzenesulfonamide] | > 100 nM
9 | Cn1nccc1-c1cc(Cl)ccc1C(O)c1ccc(S(=O)(=O)Nc2nccs2)cc1 (centres unmarked) [Example 138, 4-((4-chloro-2-(1-methyl-1H-pyrazol-5-yl)phenyl)(hydroxy)methyl)-N-(thiazol-2-yl)benzenesulfonamide] | > 100 nM
10 | N#Cc1cc(S(=O)(=O)Nc2nccs2)ccc1Oc1cnc(-c2ccccc2F)cc1-c1ccoc1 [Example 6, 3-cyano-4-(6-(2-fluorophenyl)-4-(furan-3-yl)pyridin-3-yloxy)-N-(thiazol-2-yl)benzenesulfonamide] | > 100 nM
11 | Cn1nccc1-c1nc(-c2ccsc2)ccc1Oc1ccc(S(=O)(=O)Nc2nccs2)cc1C#N [Example 119, 3-cyano-4-((2-(1-methyl-1H-pyrazol-5-yl)-6-(thiophen-3-yl)pyridin-3-yl)oxy)-N-(thiazol-2-yl)benzenesulfonamide] | 51 to 100 nM
12 | Cn1cc(-c2nc(-c3ccc(F)nc3F)ccc2Oc2ccc(S(=O)(=O)Nc3nccs3)cc2C#N)cn1 [Example 126, 3-cyano-4-((2′,6′-difluoro-6-(1-methyl-1H-pyrazol-4-yl)-[2,3′-bipyridin]-5-yl)oxy)-N-(thiazol-2-yl)benzenesulfonamide] | > 100 nM
13 | Cc1cc(-c2cc(-c3ccccc3)ncc2Oc2ccc(S(=O)(=O)Nc3nccs3)cc2C#N)cnc1F [Example 32, 3-cyano-4-((6-fluoro-5-methyl-6′-phenyl-[3,4′-bipyridin]-3′-yl)oxy)-N-(thiazol-2-yl)benzenesulfonamide] | > 100 nM
14 | O=S(=O)(Nc1cscn1)c1cc(Cl)c(Oc2ccc(-c3ccc(F)nc3F)nc2-c2ccoc2)cc1F [Example 129, 5-chloro-4-((2′,6′-difluoro-6-(furan-3-yl)-[2,3′-bipyridin]-5-yl)oxy)-2-fluoro-N-(thiazol-4-yl)benzenesulfonamide] | > 100 nM
15 | Cn1cc(-c2nc(-c3ccc(F)nc3)ccc2Oc2ccc(S(=O)(=O)Nc3nccs3)cc2C#N)cn1 [Example 124, 3-cyano-4-((6′-fluoro-6-(1-methyl-1H-pyrazol-4-yl)-[2,3′-bipyridin]-5-yl)oxy)-N-(thiazol-2-yl)benzenesulfonamide] | > 100 nM
16 | N#Cc1cc(S(=O)(=O)Nc2nccs2)ccc1Oc1cnc(-c2ccc(F)nc2)cc1-c1ccoc1 [Example 11, 3-cyano-4-(6′-fluoro-4-(furan-3-yl)-2,3′-bipyridin-5-yloxy)-N-(thiazol-2-yl)benzenesulfonamide] | 51 to 100 nM
17 | N#Cc1cc(S(=O)(=O)Nc2nccs2)ccc1Oc1cnc(-c2ccccc2)cc1-c1ccncc1 [Example 40, 3-cyano-4-((6-phenyl-[4,4′-bipyridin]-3-yl)oxy)-N-(thiazol-2-yl)benzenesulfonamide] | > 100 nM
18 | Cn1cc(-c2cc(-c3cnn(C)c3)c(Oc3ccc(S(=O)(=O)Nc4nccs4)cc3C#N)cn2)cn1 [Example 54, 4-((4,6-bis(1-methyl-1H-pyrazol-4-yl)pyridin-3-yl)oxy)-3-cyano-N-(thiazol-2-yl)benzenesulfonamide] | > 100 nM
19 | Cn1cc(-c2cc(-c3ccc(F)c(F)c3)ncc2Oc2cc(F)c(S(=O)(=O)Nc3cscn3)cc2Cl)cn1 [Example 67, 5-chloro-4-((6-(3,4-difluorophenyl)-4-(1-methyl-1H-pyrazol-4-yl)pyridin-3-yl)oxy)-2-fluoro-N-(thiazol-4-yl)benzenesulfonamide 2,2,2-trifluoroacetate] | > 100 nM
20 | O=S(=O)(Nc1cscn1)c1cc(Cl)c(Oc2cnc(-c3ccc(F)nc3)cc2-c2ccoc2)cc1F [Example 57, 5-chloro-2-fluoro-4-((6′-fluoro-4-(furan-3-yl)-[2,3′-bipyridin]-5-yl)oxy)-N-(thiazol-4-yl)benzenesulfonamide] | > 100 nM
21 | N#Cc1cc(S(=O)(=O)Nc2nccs2)ccc1Oc1cnc(-c2ccccc2)cc1-c1ccnc(F)c1 [Example 31, 3-cyano-4-((2′-fluoro-6-phenyl-[4,4′-bipyridin]-3-yl)oxy)-N-(thiazol-2-yl)benzenesulfonamide] | 51 to 100 nM
22 | Cn1cc(-c2cc(-c3ccnc(F)c3)ncc2Oc2cc(F)c(S(=O)(=O)Nc3cscn3)cc2Cl)cn1 [Example 68, 5-chloro-2-fluoro-4-((2′-fluoro-4-(1-methyl-1H-pyrazol-4-yl)-[2,4′-bipyridin]-5-yl)oxy)-N-(thiazol-4-yl)benzenesulfonamide 2,2,2-trifluoroacetate] | > 100 nM
23 | O=S(=O)(Nc1nccs1)c1ccc(Oc2cnc(-c3ccoc3)cc2-c2ccoc2)c(F)c1 [Example 17, 4-((4,6-di(furan-3-yl)pyridin-3-yl)oxy)-3-fluoro-N-(thiazol-2-yl)benzenesulfonamide] | > 100 nM
24 | O=S(=O)(Nc1nccs1)c1ccc(C(O)c2ccc(Cl)cc2-c2ccoc2)c(F)c1 (centres unmarked) [Example 140, 4-((4-chloro-2-(furan-3-yl)phenyl)(hydroxy)methyl)-3-fluoro-N-(thiazol-2-yl)benzenesulfonamide] | > 100 nM
25 | N#Cc1cc(S(=O)(=O)Nc2nccs2)ccc1Oc1ccc(-c2ccoc2)nc1-c1ccoc1 [Example 114, 3-cyano-4-((2,6-di(furan-3-yl)pyridin-3-yl)oxy)-N-(thiazol-2-yl)benzenesulfonamide] | > 100 nM
26 | O=S(=O)(Nc1cscn1)c1cc(Cl)c(Oc2cnc(-c3ccnc(F)c3)cc2-c2ccoc2)cc1F [Example 62, 5-chloro-2-fluoro-4-((2′-fluoro-4-(furan-3-yl)-[2,4′-bipyridin]-5-yl)oxy)-N-(thiazol-4-yl)benzenesulfonamide] | > 100 nM
27 | O=S(=O)(Nc1cscn1)c1cc(F)c(Oc2cnc(-c3cccc(F)c3)cc2-c2cncnc2)cc1F [Example 95, 2,5-difluoro-4-((6-(3-fluorophenyl)-4-(pyrimidin-5-yl)pyridin-3-yl)oxy)-N-(thiazol-4-yl)benzenesulfonamide] | > 100 nM
28 | O=S(=O)(Nc1nccs1)c1ccc(C(O)c2ccc(Cl)cc2-c2ccoc2)cc1 (centres unmarked) [Example 143, 4-((4-chloro-2-(furan-3-yl)phenyl)(hydroxy)methyl)-N-(thiazol-2-yl)benzenesulfonamide] | < 50 nM
29 | Cn1nccc1-c1nc(-c2ccc(F)cc2)ccc1Oc1cc(F)c(S(=O)(=O)Nc2cscn2)cc1Cl [Example 135, 5-chloro-2-fluoro-4-((6-(4-fluorophenyl)-2-(1-methyl-1H-pyrazol-5-yl)pyridin-3-yl)oxy)-N-(thiazol-4-yl)benzenesulfonamide] | > 100 nM

Source: patent US9376429B2, “Sodium channel blockers, preparation method thereof and use thereof” (Daewoong Pharmaceutical Co., Ltd., priority 2012, dated 2016)
